Measured values reported in US10179774B2, “Synthesis of chirally purified substituted benzothiazole diamines” (priority 2007, dated 2019).

Tests used:
[1] = test system: monkeys; conditions: single oral dose; cited from earlier work
[2] = test system: rodents
[3] = test system: humans; conditions: cited from earlier work
[4] = test system: rodents; conditions: single oral dose, 'and above'; cited from earlier work
[5] = test system: dogs; conditions: single oral dose, 'and above'; cited from earlier work

CCCNC1CCc2nc(N)sc2C1 (stereo not shown) [pramipexole]
dose at which major excitation was displayed [1]: 3.5 mg/kg | equivalent human dose of the rodent lethal dose ([2]; human equivalent of 70-105 mg/kg in rodents): 7 to 12 mg/kg | equivalent human dose of the rodent lethal dose for a 70 kg individual ([2]; rodents, in vivo): 500 to 850 mg | initial single dose not tolerated ([3]; human subjects, initial single dose): greater than 0.20 mg | dose shown to cause somnolence ([3]; humans, 'as low as'): 1.5 mg | doses at which death occurred [4]: 70 to 105 mg/kg | dose at which vomiting occurred [5]: ≥ 0.0007 mg/kg
